Values joined by “and” are separate entries in the source; they are usually repeats but may differ in a detail not shown here. Equal entries are not always repeated.
How the values were obtained:
female BALB/C mice = assay: Mouse in vivo imaging of Fluc-mRNA LNP formulations; design: average radiation intensity (mRNA expression): unit not given here; conditions: for average radiation intensity (mRNA expression): 10 μg Fluc-mRNA LNP intramuscularly
How it was run: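 Female BALB/C mice (4–6 weeks, 17–19 g) received LNP carrying 10 μg Fluc-mRNA intramuscularly. Imaging substrate given intraperitoneally at 6 h, 24 h, 48 h and 7 d; after 5 min free movement, average radiance read by IVIS Spectrum imaging.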

293T cells [1] = assay: Fluorescence detection of Fluc-mRNA (cell transfection efficiency of LNP formulations); type: cell-based
How it was run: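 293T cells at 10,000 per well, adhered overnight, then given LNPs carrying 0.3 μg Fluc-mRNA (cationic:neutral:structured:polymer-conjugated lipid 49:10:39.5:1.5 molar). After 24 h, luciferase signal read with luciferase kit reagents on an IVIS imaging system as transfection efficiency.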

293T cells [2] = assay: Cell survival rate assay (CCK-8); type: cell-based
How it was run: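 293T cells seeded at 10,000 per well and grown overnight, then exposed for 24 h to LNPs (cationic/neutral/structured/PEG lipids 49:10:39.5:1.5) carrying 1.5 μg Fluc-mRNA, or Lipofectamine 3000. Viability read by CCK-8, 1 h incubation, absorbance at 450 nm.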

[3] = Particle size and polydispersity index (PDI) of nanolipid particles, dynamic light scattering; type: physicochemical; conditions: LNP formulation prepared from the named cationic lipid, 25° C
Method: The particle size and polydispersity index (PDI) were determined by dynamic light scattering method using a Malvern laser particle size analyzer. 10 μL of liposome solution was diluted to 1 mL with RNase-free deionized water and added to a sample pool. Each sample was measured three times. The measurement conditions were: 90° scattering angle, 25° C.

## CCCCCCCCCCCOC(=O)CCCCCN(CCCCCCCC(=O)OC(CCCCCCCC)CCCCCCCC)CCN(C)CCO [YK-201, heptadecan-9-yl-8-(2-((2-hydroxyethyl)(methylamino))ethyl)(6-oxo-6-((undecanyloxy)hexyl)amino)octanoate]
Female BALB/C mice; 6 h
  average radiation intensity, times that of ALC-0315: 3.39 times
  average radiation intensity, times that of HHMA: 4.47 times
  average radiation intensity, times that of SM-102: 4.21 times
  average radiation intensity, times that of compound 21: 4.76 times
  average radiation intensity, times that of compound 23: 4.81 times
  mRNA expression level, times that of YK-204: 81.10 times
  mRNA expression level, times that of YK-223: 276.05 times
  average radiation intensity (mRNA expression): 2858500
Female BALB/C mice; 6 hours
  expression level, times that of YK-215: 56.53 times
  expression level, times that of YK-217: 116.27 times
Female BALB/C mice; 24 h
  average radiation intensity, times that of ALC-0315: 11.11 times
  average radiation intensity, times that of HHMA: 18.47 times
  average radiation intensity, times that of SM-102: 17.49 times
  average radiation intensity, times that of compound 21: 18.76 times
  average radiation intensity, times that of compound 23: 18.27 times
  mRNA expression level, times that of YK-204: 387.32 times
  mRNA expression level, times that of YK-223: 1134.20 times
  average radiation intensity (mRNA expression): 2025680
Female BALB/C mice; 24 hours
  expression level, times that of YK-215: 297.24 times
  expression level, times that of YK-217: 764.41 times
Female BALB/C mice; 48 h
  average radiation intensity, times that of ALC-0315: 19.16 times
  average radiation intensity, times that of HHMA: 24.82 times
  average radiation intensity, times that of SM-102: 23.91 times
  average radiation intensity, times that of compound 21: 24.34 times
  average radiation intensity, times that of compound 23: 22.78 times
  mRNA expression level, times that of YK-204: 299.49 times
  mRNA expression level, times that of YK-223: 1077.82 times
  average radiation intensity (mRNA expression): 730760
Female BALB/C mice; 48 hours
  expression level, times that of YK-215: 200.76 times
  expression level, times that of YK-217: 713.63 times
Female BALB/C mice; 7 d
  average radiation intensity, times that of ALC-0315: 4.58 times
  average radiation intensity, times that of HHMA: 5.68 times
  average radiation intensity, times that of SM-102: 5.11 times
  average radiation intensity, times that of compound 21: 4.94 times
  average radiation intensity, times that of compound 23: 5.17 times
  expression level, times that of YK-215: 29.56 times
  expression level, times that of YK-217: 57.65 times
  mRNA expression level, times that of YK-204: 39.99 times
  mRNA expression level, times that of YK-223: 68.53 times
  average radiation intensity (mRNA expression): 30151
Female BALB/C mice; time point not stated
  mRNA expression in mice can reach, times that of YK-204: 380 times
293T cells [1]; Fluc-mRNA LNP
  RLU / cell transfection efficiency, times that of ALC-0315: 13.27 times
  RLU / cell transfection efficiency, times that of HHMA: 13.56 times
  RLU / cell transfection efficiency, times that of Lipofectamine 3000: 23.71 times
  RLU / cell transfection efficiency, times that of YK-009: 5.56 times
  RLU / cell transfection efficiency, times that of compound 21: 20.04 times
  RLU / cell transfection efficiency, times that of compound 23: 21.38 times
  cell transfection efficiency, times that of YK-223: 379.71 times
  cell transfection efficiency, times that of YK-224: 323.59 times
  cell transfection efficiency, times that of YK-226: 493.98 times
  fluorescence absorption value / cell transfection efficiency, times that of YK-203: 7.36 times
  fluorescence absorption value / cell transfection efficiency, times that of YK-204: 78 times and 78.25 times
  fluorescence absorption value / cell transfection efficiency, times that of YK-205: 27.68 times
  fluorescence absorption value / cell transfection efficiency, times that of YK-208: 7.38 times
  fluorescence absorption value / cell transfection efficiency, times that of YK-210: 6.15 times
  fluorescence absorption value / cell transfection efficiency, times that of YK-211: 20.79 times
  fluorescence absorption value / cell transfection efficiency, times that of YK-212: 7.28 times
  fluorescence absorption value / cell transfection efficiency, times that of YK-213: 20.87 times
  fluorescence absorption value / cell transfection efficiency, times that of YK-214: 6.22 times
  fluorescence absorption value / cell transfection efficiency, times that of YK-215: 29.03 times
  fluorescence absorption value / cell transfection efficiency, times that of YK-216: 12.49 times
  fluorescence absorption value / cell transfection efficiency, times that of YK-217: 396.42 times
  fluorescence absorption value / cell transfection efficiency, times that of YK-218: 46.92 times
  fluorescence absorption value / cell transfection efficiency, times that of YK-219: 18.91 times
  fluorescence absorption value / cell transfection efficiency, times that of YK-220: 131.62 times
  fluorescence absorption value, times that of YK-222: 46.97 times
293T cells [1]; LNP containing 0.3 μg Fluc-mRNA, 24 hours
  Relative light unit (RLU): 28482617 RLU
293T cells [1]; RLU of YK-201 / RLU of the named lipid
  Multiples of values that equivalent to YK-201: 1.00
293T cells [1]; RLU of YK-202 / RLU of the named lipid
  Multiples of values that equivalent to YK-202: 1.05
293T cells [1]; RLU of the named lipid / RLU of SM-102, times that of SM-102
  Ratio relative to SM-102: 17.10
293T cells [2]; LNP containing 1.5 μg Fluc-mRNA, 24 hours, CCK-8
  Cell survival rate: 75.93%
293T cells [2]; difference of rates
  cell survival rate higher (cytotoxicity reduced) compared with YK-221: 55% and 54.98%
  cell survival rate higher (toxicity lower) than that of YK-204: 30% and 33.36%
  cell survival rate higher (toxicity lower) than that of YK-225: 32.52%
  cell survival rate higher than that of ALC-0315: 25.97%
  cell survival rate higher than that of HHMA: 10.37%
  cell survival rate higher than that of Lipofectamine 3000: 52.88%
  cell survival rate higher than that of SM-102: 7.38%
  cell survival rate higher than that of YK-203: 40.37%
  cell survival rate higher than that of YK-205: 17.01%
  cell survival rate higher than that of YK-208: 29.25%
  cell survival rate higher than that of YK-210: 37.55%
  cell survival rate higher than that of YK-211: 23.63%
  cell survival rate higher than that of YK-212: 40.67%
  cell survival rate higher than that of YK-213: 34.49%
  cell survival rate higher than that of YK-214: 50.35% and 50%
  cell survival rate higher than that of YK-215: 31.34%
  cell survival rate higher than that of YK-216: 30.13%
  cell survival rate higher than that of YK-217: 33.66%
  cell survival rate higher than that of YK-219: 17.32%
  cell survival rate higher than that of YK-220: 16.94%
  cell survival rate higher than that of YK-222: 42.18%
  cell survival rate higher than that of YK-223: 39.29%
  cell survival rate higher than that of YK-224: 52.46%
  cell survival rate higher than that of YK-226: 48.03%
  cell survival rate higher than that of compound 21: 6.91%
  cell survival rate higher than that of compound 23: 5.83%
[3]
  PDI: 25.5%
  Particle size: 205 nm
